# Data from publication PMC6001238, “Iterative Chemical Engineering of Vancomycin Leads to Novel Vancomycin Analogs With a High in Vitro Therapeutic Index” (Frontiers in Microbiology, 2018).
# Experiments:
# [1] = test system: E. faecalis VRE 37; assay: MIC, broth microdilution, vancomycin-resistant E. faecalis VRE 37 (VanA); assay type: cell-based, Enterococcus faecalis; conditions: for MIC: Enterococcus faecalis VRE 37 (vancomycin-resistant), read-out: MIC; for MIC-fold improvement vs. vancomycin: VRE 37, ratio of MIC of vancomycin and MIC of analogue
# Method in brief: (§1)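 Assayed by broth microdilution under CLSI antimicrobial testing rules. One case paired the analog or control drug with vancomycin at a 10 μM final concentration; water and inoculum-free broth were controls.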
# [2] = test system: E. faecalis VRE 6; assay: MIC, broth microdilution, vancomycin-resistant E. faecalis VRE 6 (VanA); assay type: cell-based, Enterococcus faecalis; conditions: for MIC: Enterococcus faecalis VRE 6 (vancomycin-resistant), read-out: MIC; for MIC-fold improvement vs. vancomycin: VRE 6, ratio of MIC of vancomycin and MIC of analogue
# Method in brief: as §1
# [3] = test system: E. faecalis VRE 53; assay: MIC, broth microdilution, vancomycin-resistant E. faecalis VRE 53 (VanA); assay type: cell-based, Enterococcus faecalis; conditions: for MIC: Enterococcus faecalis VRE 53 (vancomycin-resistant), read-out: MIC; for MIC-fold improvement vs. vancomycin: VRE 53, ratio of MIC of vancomycin and MIC of analogue
# Method in brief: as §1
# [4] = test system: MRSA KS6; assay: MIC, broth microdilution, MRSA KS6; assay type: cell-based, Staphylococcus aureus; conditions: for MIC-fold improvement vs. vancomycin: MRSA KS6, ratio of MIC of vancomycin and MIC of analogue; for MIC: Staphylococcus aureus MRSA KS6, read-out: MIC
# Method in brief: as §1
# [5] = test system: S. aureus VRSA; assay: MIC, broth microdilution, vancomycin-resistant S. aureus (VRSA); assay type: cell-based, Staphylococcus aureus; conditions: for MIC: Staphylococcus aureus VRSA, read-out: MIC; for MIC-fold improvement vs. vancomycin: VRSA, ratio of MIC of vancomycin and MIC of analogue
# Method in brief: as §1
# [6] = test system: S. aureus VSSA (ATCC 6538); assay: MIC, broth microdilution, vancomycin-sensitive S. aureus (VSSA/MSSA, ATCC 6538); assay type: cell-based, Staphylococcus aureus; conditions: for MIC: Staphylococcus aureus VSSA, read-out: MIC; for MIC-fold improvement vs. vancomycin: VSSA, ratio of MIC of vancomycin and MIC of analogue
# Method in brief: as §1
# [7] = test system: L1210, CEM and HeLa cell lines; assay: Cytostatic activity, average or summary over L1210, CEM and HeLa; assay type: cell-based; conditions: average of L1210, CEM and HeLa; read-out: Toxicity (IC50) Average
# Method in brief: (§2)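 Readout: Coulter cell number after drug exposure at 37°C. Durations differ by line (L1210 2 days; CEM 3 days; HeLa 4 days). Stock suspension 300,000–500,000 cells/mL, diluted by mixing with compound. Endpoint: IC50 vs negative control.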
# [8] = test system: Murine leukemia (L1210) cells; assay: Cytostatic activity, L1210 cell proliferation; assay type: cell-based; conditions: mean ± SD of three experiments; highest concentration tested 250 µM; 2 days; read-out: Toxicity (IC50) L1210
# Method in brief: as §2
# [9] = test system: E. faecalis VRE 29; assay: MIC, broth microdilution, vancomycin-resistant E. faecalis VRE 29 (VanA); assay type: cell-based, Enterococcus faecalis; conditions: for MIC: Enterococcus faecalis VRE 29 (vancomycin-resistant), read-out: MIC; for MIC-fold improvement vs. vancomycin: VRE 29, ratio of MIC of vancomycin and MIC of analogue
# Method in brief: as §1
# [10] = test system: human cervix carcinoma (HeLa) cells; assay: Cytostatic activity, HeLa cell proliferation; assay type: cell-based; conditions: mean ± SD of three experiments; highest concentration tested 250 µM; 4 days; read-out: Toxicity (IC50) HeLa
# Method in brief: as §2
# [11] = test system: MRSA KS1; assay: MIC, broth microdilution, MRSA KS1; assay type: cell-based, Staphylococcus aureus; conditions: for MIC-fold improvement vs. vancomycin: MRSA KS1, ratio of MIC of vancomycin and MIC of analogue; for MIC: Staphylococcus aureus MRSA KS1, read-out: MIC
# Method in brief: as §1
# [12] = test system: MRSA KS89; assay: MIC, broth microdilution, MRSA KS89; assay type: cell-based, Staphylococcus aureus; conditions: for MIC-fold improvement vs. vancomycin: MRSA KS8, ratio of MIC of vancomycin and MIC of analogue; for MIC: Staphylococcus aureus MRSA KS8, read-out: MIC
# Method in brief: as §1
# [13] = test system: E. faecalis VSE 1; assay: MIC, broth microdilution, vancomycin-sensitive E. faecalis (VSE 1); assay type: cell-based, Enterococcus faecalis; conditions: for MIC: Enterococcus faecalis VSE 1 (vancomycin-sensitive), read-out: MIC; for MIC-fold improvement vs. vancomycin: VSE 1, ratio of MIC of vancomycin and MIC of analogue
# Method in brief: as §1
# [14] = test system: human T-lymphocyte (CEM) cells; assay: Cytostatic activity, CEM cell proliferation; assay type: cell-based; conditions: mean ± SD of three experiments; highest concentration tested 250 µM; 3 days; read-out: Toxicity (IC50) CEM
# Method in brief: as §2
# [15] = test system: S. aureus VISA/HIP5827; assay: MIC, broth microdilution, vancomycin-intermediate S. aureus VISA HIP5827; assay type: cell-based, Staphylococcus aureus; conditions: for MIC: Staphylococcus aureus VISA/HIP5827, read-out: MIC; for MIC-fold improvement vs. vancomycin: VISA/HIP5827, ratio of MIC of vancomycin and MIC of analogue
# Method in brief: as §1
# [16] = test system: MRSA KS2; assay: MIC, broth microdilution, MRSA KS2; assay type: cell-based, Staphylococcus aureus; conditions: for MIC-fold improvement vs. vancomycin: MRSA KS2, ratio of MIC of vancomycin and MIC of analogue; for MIC: Staphylococcus aureus MRSA KS2, read-out: MIC
# Method in brief: as §1
Compound,MIC [1] [µM],MIC [2] [µM],MIC-fold improvement vs. vancomycin [2],MIC [3] [µM],MIC-fold improvement vs. vancomycin [3],MIC-fold improvement vs. vancomycin [4],MIC [4] [µM],MIC [5] [µM],MIC-fold improvement vs. vancomycin [5],MIC [6] [µM],MIC-fold improvement vs. vancomycin [6],IC50 [7] [µM],IC50 [8] [µM],MIC [9] [µM],MIC-fold improvement vs. vancomycin [9],IC50 [10] [µM],MIC-fold improvement vs. vancomycin [11],MIC [11] [µM],MIC-fold improvement vs. vancomycin [12],MIC [12] [µM],also measured
CCCCCCCc1ccc(C(=O)NCCCNC(=O)C2NC(=O)C3NC(=O)C(NC(=O)C4NC(=O)C(CC(N)=O)NC(=O)C(NC(=O)C(CC(C)C)NC)C(O)c5ccc(c(Cl)c5)Oc5cc4cc(c5OC4OC(CO)C(O)C(O)C4OC4CC(C)(N)C(O)C(C)O4)Oc4ccc(cc4Cl)C3O)c3ccc(O)c(c3)-c3c(O)cc(O)cc32)cc1 (stereo not drawn) [Vanc-31],1.56,0.39,513,3.13,128,4,0.20,0.78,128,0.20,4,37,8.8 ± 0.6,1.56,256,86 ± 14,1,0.78,4,0.20,MIC-fold improvement vs. vancomycin [1]: 256; MIC [13]: 0.39 µM; MIC-fold improvement vs. vancomycin [13]: 4; IC50 [14]: 17 ± 5 µM; MIC [15]: 0.05 µM; MIC-fold improvement vs. vancomycin [15]: 128; MIC-fold improvement vs. vancomycin [16]: 4; MIC [16]: 0.20 µM
CNC(CC(C)C)C(=O)NC1C(=O)NC(CC(N)=O)C(=O)NC2C(=O)NC3C(=O)NC(C(=O)NC(C(=O)NCCCNC(=O)c4ccc(C(F)(F)F)cc4)c4cc(O)cc(O)c4-c4cc3ccc4O)C(O)c3ccc(c(Cl)c3)Oc3cc2cc(c3OC2OC(CO)C(O)C(O)C2OC2CC(C)(N)C(O)C(C)O2)Oc2ccc(cc2Cl)C1O (stereo not drawn) [Vanc-32],25,3.13,64,50,8,2,0.39,6.25,16,0.78,1,157,164 ± 46,12.5,32,106 ± 2,2,0.39,2,0.39,MIC-fold improvement vs. vancomycin [1]: 16; MIC [13]: 0.39 µM; MIC-fold improvement vs. vancomycin [13]: 4; IC50 [14]: 200 ± 12 µM; MIC [15]: 0.78 µM; MIC-fold improvement vs. vancomycin [15]: 8; MIC-fold improvement vs. vancomycin [16]: 2; MIC [16]: 0.39 µM
CNC(CC(C)C)C(=O)NC1C(=O)NC(CC(N)=O)C(=O)NC2C(=O)NC3C(=O)NC(C(=O)NC(C(=O)NCCCNC(=O)c4ccc(-c5ccccc5)cc4)c4cc(O)cc(O)c4-c4cc3ccc4O)C(O)c3ccc(c(Cl)c3)Oc3cc2cc(c3OC2OC(CO)C(O)C(O)C2OC2CC(C)(N)C(O)C(C)O2)Oc2ccc(cc2Cl)C1O (stereo not drawn) [Vanc-33],12.5,1.56,128,25,16,2,0.39,0.78,128,0.20,4,73,57 ± 20,6.25,64,84 ± 8,2,0.39,2,0.39,MIC [13]: 0.20 µM; MIC-fold improvement vs. vancomycin [13]: 8; IC50 [14]: 78 ± 16 µM; MIC [15]: 0.20 µM; MIC-fold improvement vs. vancomycin [15]: 32; MIC-fold improvement vs. vancomycin [16]: 4; MIC [16]: 0.20 µM
CNC(CC(C)C)C(=O)NC1C(=O)NC(CC(N)=O)C(=O)NC2C(=O)NC3C(=O)NC(C(=O)NC(C(=O)NCCCNC(=O)c4ccc(-c5ccc(-c6ccccc6)cc5)cc4)c4cc(O)cc(O)c4-c4cc3ccc4O)C(O)c3ccc(c(Cl)c3)Oc3cc2cc(c3OC2OC(CO)C(O)C(O)C2OC2CC(C)(N)C(O)C(C)O2)Oc2ccc(cc2Cl)C1O (stereo not drawn) [Vanc-35],1.56,0.39,513,6.25,64,4,0.20,1.56,64,0.05,16,7,4.1 ± 0.5,1.56,256,17 ± 2,1,0.78,4,0.20,MIC-fold improvement vs. vancomycin [1]: 256; MIC [13]: 0.20 µM; MIC-fold improvement vs. vancomycin [13]: 8; IC50 [14]: 0.98 ± 0.06 µM; MIC [15]: 0.05 µM; MIC-fold improvement vs. vancomycin [15]: 128; MIC-fold improvement vs. vancomycin [16]: 2; MIC [16]: 0.39 µM
